Experimental data published in patent US20050222146A1, “N-substituted-n-sulfonylaminocyclopropane compounds and pharmaceutical use thereof” (priority 2003, published 2005).

Legend:
aggrecanase-1 = biological target: T1, aggrecanase-1 (Homo sapiens, UniProt O75173); assay: Aggrecanase-1 inhibitory action, Particle Assay (GAG release from aggrecan-containing polyacrylamide particles); type: biochemical; settings: 37° C. for 15 hr, read-out: Experimental Example 1 IC50 AG1
T1 sequence (O75173 213-837): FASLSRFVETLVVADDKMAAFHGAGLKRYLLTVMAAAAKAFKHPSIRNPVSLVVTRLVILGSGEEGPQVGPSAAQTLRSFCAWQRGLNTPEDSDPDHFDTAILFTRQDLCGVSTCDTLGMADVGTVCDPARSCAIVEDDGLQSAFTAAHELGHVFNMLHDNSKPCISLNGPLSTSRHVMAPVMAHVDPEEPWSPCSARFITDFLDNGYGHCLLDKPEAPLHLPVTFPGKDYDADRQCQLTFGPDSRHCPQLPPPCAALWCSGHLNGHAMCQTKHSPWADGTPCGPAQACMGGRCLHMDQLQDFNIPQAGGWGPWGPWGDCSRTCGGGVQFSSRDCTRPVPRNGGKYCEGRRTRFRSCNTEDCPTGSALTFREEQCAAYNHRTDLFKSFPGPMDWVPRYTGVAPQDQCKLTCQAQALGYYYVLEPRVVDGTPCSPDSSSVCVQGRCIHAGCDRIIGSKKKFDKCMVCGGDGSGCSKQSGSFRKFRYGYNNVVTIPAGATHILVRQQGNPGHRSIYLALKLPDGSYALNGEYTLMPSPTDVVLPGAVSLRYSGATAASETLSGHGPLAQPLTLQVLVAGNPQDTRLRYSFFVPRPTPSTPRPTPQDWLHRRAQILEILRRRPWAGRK
How it was run: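 Enzyme and test compound (DMSO dilutions) in Tris-HCl buffer incubated with aggrecan-containing polyacrylamide particles at 37 °C for 15 hr. Released GAG in supernatant quantified with 1,9-dimethylmethylene blue at 595 nm against whale chondroitin sulfate standard; % inhibition versus enzyme-free and inhibitor-free wells gives IC50 (μM).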

MMP-1 = biological target: T2, MMP-1 (Homo sapiens, UniProt P03956); assay: MMP-1 inhibitory action, Type I collagen Activity Measurement kit (FITC-labeled collagen type I); type: biochemical; settings: 37° C. for 3 hr, read-out: Experimental Example 2 IC50 MMP1
T2 sequence (P03956 100-469): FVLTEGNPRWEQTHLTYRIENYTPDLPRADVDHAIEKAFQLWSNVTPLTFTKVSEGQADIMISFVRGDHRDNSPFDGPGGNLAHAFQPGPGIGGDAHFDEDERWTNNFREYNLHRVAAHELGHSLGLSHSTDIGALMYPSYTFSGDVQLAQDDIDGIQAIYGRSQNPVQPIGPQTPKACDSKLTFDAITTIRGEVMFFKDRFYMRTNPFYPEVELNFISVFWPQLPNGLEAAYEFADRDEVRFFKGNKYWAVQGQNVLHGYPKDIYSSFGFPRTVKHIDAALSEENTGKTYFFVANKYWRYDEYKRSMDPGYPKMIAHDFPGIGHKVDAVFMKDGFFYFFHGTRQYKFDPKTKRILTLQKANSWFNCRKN

IC50 (aggrecanase-1)	IC50 (MMP-1)	Compound
< 1 µM	≥ 10 µM	CCN(CC)CCNc1cccc([C@@H]2C[C@@]2(C(=O)O)N(Cc2cccc(C(=O)O)c2)S(=O)(=O)c2ccc(-c3ccc(Cl)cc3)cc2)c1 (relative stereo) [Example 1-85, 3-{[{(1R*,2S*)-1-carboxy-2-[3-(2-diethylamino-ethylamino)-phenyl]-cyclopropyl}-(4′-chloro-biphenyl-4-sulfonyl)-amino]-methyl}-benzoic acid]
< 0.1 µM	≥ 10 µM	O=C(O)c1cccc(CN([C@]2(C(=O)O)C[C@H]2c2cccc(Nc3ccccn3)c2)S(=O)(=O)c2ccc(-c3ccc(Cl)cc3)cc2)c1 (relative stereo) [Example 1-86, 3-{[{(1R*,2S*)-1-carboxy-2-[3-(pyridin-2-ylamino)-phenyl]-cyclopropyl}-(4′-chloro-biphenyl-4-sulfonyl)-amino]-methyl}benzoic acid]
< 0.1 µM	≥ 10 µM	O=C(O)c1cccc(CN([C@]2(C(=O)O)C[C@H]2c2cccc(OCCO)c2)S(=O)(=O)c2ccc(-c3ccc(Cl)cc3)cc2)c1 (relative stereo) [Example 1-88, 3-{[{(1R*,2S*)-1-carboxy-2-[3-(2-hydroxy-ethoxy)-phenyl]-cyclopropyl}-(4′-chloro-biphenyl-4-sulfonyl)-amino]-methyl}-benzoic acid]
< 1 µM	≥ 10 µM	O=C(O)[C@@]1(N(CCNS(=O)(=O)C(F)(F)F)S(=O)(=O)c2ccc(-c3ccc(Cl)cc3)cc2)C[C@H]1c1cccc(NCCN2CCCCC2)c1 (relative stereo) [Example 1-89, (1R*,2S*)-1-[(4′-chloro-biphenyl-4-sulfonyl)-(2-trifluoromethanesulfonylamino-ethyl)-amino]-2-[3-(2-piperidin-1-yl-ethylamino)-phenyl]-cyclopropanecarboxylic acid]
< 1 µM	≥ 10 µM	O=C(O)[C@@]1(N(CCNS(=O)(=O)C(F)(F)F)S(=O)(=O)c2ccc(-c3ccc(Cl)cc3)cc2)C[C@H]1c1cccc(NS(=O)(=O)CCN2CCCCC2)c1 (relative stereo) [Example 1-90, (1R*,2S*)-1-[(4′-chloro-biphenyl-4-sulfonyl)-(2-trifluoromethanesulfonylamino-ethyl)-amino]-2-[3-(2-piperidin-1-yl-ethanesulfonylamino)-phenyl]-cyclopropanecarboxylic acid]
< 1 µM	≥ 10 µM	O=C(O)CCCN([C@]1(C(=O)O)C[C@H]1c1ccccc1)S(=O)(=O)c1ccc(-c2ccc(Cl)cc2)cc1 (relative stereo) [Example 1-93, (1R*,2S*)-1-[(3-carboxy-propyl)-(4′-chloro-biphenyl-4-sulfonyl)-amino]-2-phenyl-cyclopropanecarboxylic acid]
< 0.1 µM	≥ 10 µM	O=C(O)c1cccc(CN([C@]2(C(=O)O)C[C@H]2c2cccc(NC(=O)c3cccnc3)c2)S(=O)(=O)c2ccc(-c3ccc(Cl)cc3)cc2)c1 (relative stereo) [Example 1-99, 3-{[((1R*, 2S*)-1-carboxy-2-{3-[(pyridin-3-carbonyl)-amino]-phenyl}-cyclopropyl)-(4′-chloro-biphenyl-4-sulfonyl)-amino]-methyl}-benzoic acid]

Further lines, the compound ahead of its results:

Compound	IC50 (aggrecanase-1)	IC50 (MMP-1)
O=C(O)[C@@]1(N(Cc2noc(=O)[nH]2)S(=O)(=O)c2ccc(-c3ccc(Cl)cc3)cc2)C[C@H]1c1cccc(Oc2ccccc2)c1 (relative stereo) [Example 1-72, (1R*,2S*)-1-[(4′-chloro-biphenyl-4-sulfonyl)-(5-oxo-4,5-dihydro-[1,2,4]oxadiazol-3-ylmethyl)-amino]-2-(3-phenoxy-phenyl)-cyclopropanecarboxylic acid]	< 0.1 µM	≥ 10 µM
O=C(O)c1ncccc1CN([C@]1(C(=O)O)C[C@H]1c1ccccc1)S(=O)(=O)c1ccc(-c2ccc(Cl)cc2)cc1 (relative stereo) [Example 1-73, 3-{[((1R*, 2S*)-1-carboxy-2-phenyl-cyclopropyl)-(4′-chloro-biphenyl-4-sulfonyl)-amino]-methyl}-pyridin-2-carboxylic acid]	< 1 µM	≥ 10 µM
O=C(O)[C@@]1(N(CCNc2nnn[nH]2)S(=O)(=O)c2ccc(-c3ccc(Cl)cc3)cc2)C[C@H]1c1ccccc1 (relative stereo) [Example 1-77, (1R*,2S*)-1-{(4′-chloro-biphenyl-4-sulfonyl)-[2-(1H-tetrazol-5-ylamino)-ethyl]-amino}-2-phenyl-cyclopropanecarboxylic acid]	< 1 µM	≥ 10 µM
O=C(O)c1nccn1CCN([C@]1(C(=O)O)C[C@H]1c1ccccc1)S(=O)(=O)c1ccc(-c2ccc(Cl)cc2)cc1 (relative stereo) [Example 1-78, 1-{2-[((1R*,2S*)-1-carboxy-2-phenyl-cyclopropyl)-(4′-chloro-biphenyl-4-sulfonyl)-amino]-ethyl}-1H-imidazole-2-carboxylic acid]	< 1 µM	≥ 10 µM
O=C(O)[C@@]1(N(CCNS(=O)(=O)C(F)(F)F)S(=O)(=O)c2ccc(-c3ccc(Cl)cc3)cc2)C[C@H]1c1cccc(Oc2ccccc2)c1 (relative stereo) [Example 1-81, (1R*,2S*)-1-[(4′-chloro-biphenyl-4-sulfonyl)-(2-trifluoromethanesulfonylamino-ethyl)-amino]-2-(3-phenoxy-phenyl)-cyclopropanecarboxylic acid]	< 1 µM	≥ 10 µM
O=C(O)c1cccc(CN([C@]2(C(=O)O)C[C@H]2c2cccc(NCCN3CCCCC3)c2)S(=O)(=O)c2ccc(-c3ccc(Cl)cc3)cc2)c1 (relative stereo) [Example 1-91, 3-{[{(1R*,2S*)-1-carboxy-2-[3-(2-piperidin-1-yl-ethylamino)-phenyl]-cyclopropyl}-(4′-chloro-biphenyl-4-sulfonyl)-amino]-methyl}-benzoic acid]	< 1 µM	≥ 10 µM
O=C(CO)NCCN([C@]1(C(=O)O)C[C@H]1c1ccccc1)S(=O)(=O)c1ccc(-c2ccc(Cl)cc2)cc1 (relative stereo) [Example 1-96, (1R*,2S*)-1-{(4′-chloro-biphenyl-4-sulfonyl)-[2-(2-hydroxy-acetylamino)-ethyl]-amino}-2-phenyl-cyclopropanecarboxylic acid]	< 1 µM	≥ 10 µM
O=C(O)c1cccc(CN([C@]2(C(=O)O)C[C@H]2c2cccc(OCCN3CCCC3)c2)S(=O)(=O)c2ccc(-c3ccc(Cl)cc3)cc2)c1 (relative stereo) [Example 1-100, 3-{[{(1R*,2S*)-1-carboxy-2-[3-(2-pyrrolidin-1-yl-ethoxy)-phenyl]-cyclopropyl}-(4′-chloro-biphenyl-4-sulfonyl)-amino]-methyl}-benzoic acid]	< 1 µM	≥ 10 µM
O=C(O)c1cccc(CN([C@]2(C(=O)O)C[C@H]2c2cccc(OCCN3CCOCC3)c2)S(=O)(=O)c2ccc(-c3ccc(Cl)cc3)cc2)c1 (relative stereo) [Example 1-101, 3-{[{(1R*,2S*)-1-carboxy-2-[3-(2-morpholin-4-yl-ethoxy)-phenyl]-cyclopropyl}-(4′-chloro-biphenyl-4-sulfonyl)-amino]-methyl}-benzoic acid]	< 1 µM	≥ 10 µM
CNC(=O)c1cnn(CCN([C@]2(C(=O)O)C[C@H]2c2ccccc2)S(=O)(=O)c2ccc(-c3ccc(Cl)cc3)cc2)c1 (relative stereo) [Example 1-106, (1R*,2S*)—{(4′-chloro-biphenyl-4-sulfonyl)-[2-(4-methylcarbamoyl-pyrazol-1-yl)-ethyl]-amino}-2-phenyl-cyclopropanecarboxylic acid]	< 1 µM	≥ 1 µM
CC(C)(O)C(=O)NCCN([C@]1(C(=O)O)C[C@H]1c1ccccc1)S(=O)(=O)c1ccc(-c2ccc(Cl)cc2)cc1 (relative stereo) [Example 1-107, (1R*,2S*)-1-{(4′-chloro-biphenyl-4-sulfonyl)-[2-(2-hydroxy-2-methyl-propionylamino)-ethyl]-amino}-2-phenyl-cyclopropanecarboxylic acid]	< 1 µM	≥ 1 µM
O=C(O)c1cccc(CN([C@]2(C(=O)O)C[C@H]2c2cccc(OCCn3cccn3)c2)S(=O)(=O)c2ccc(-c3ccc(Cl)cc3)cc2)c1 (relative stereo) [Example 1-108, 3-{[{(1R*,2S*)-1-carboxy-2-[3-(2-pyrazol-1-yl-ethoxy)-phenyl]-cyclopropyl}-(4′-chloro-biphenyl-4-sulfonyl)-amino]-methyl}-benzoic acid]	< 1 µM	≥ 10 µM
